The source of these data is patent US11566002B2, “Substituted tetrahydrocyclopenta[C]pyrroles, substituted dihydropyrrolizines, analogues thereof, and methods using same” (priority 2018, dated 2023).

One test relates to HBV rcDNA. The experiment in a line: HepDE19 assay with bDNA quantitation of HBV rcDNA. The note with it: HepDE19 cells, Tet-free medium, 7 day-incubation, rcDNA measured by Quantigene 2.0 bDNA assay, top concentration 25 μM; read-out: DE-19 bDNA EC50. Format: cell-based, hepatitis B virus. The protocol: HepDE19 Assay with bDNA Quantitation of HBV rcDNA:
HepDE19 cell culture system is a HepG2 (human hepatocarcinoma) derived cell line that supports HBV DNA replication and cccDNA formation in a tetracycline (Tet)-regulated manner and produces HBV rcDNA and a detectable reporter molecule dependent on the production and maintenance of cccDNA (Guo, et al., 2007, J. Virol. 81:12472-12484).
HepDE19 (50,000 cells/well) were plated in 96-well collagen-coated tissue-culture treated microtiter plates in DMEM/F12 medium supplemented with 10% fetal bovine serum, 1% penicillin-streptomycin and 1 μg/mL tetracycline and incubated in a humidified incubator at 37° C. and 5% CO2 overnight. Next day, the cells were switched to fresh medium without tetracycline and incubated for 4 hours at 37° C. and 5% CO2. The cells were treated with fresh Tet-free medium with compounds at concentrations starting at 25 μM and a serial, ½ log, 8-point, titration series in duplicate. The final DMSO concentration in the assay was 0.5%. The plates were incubated for 7 days in a humidified incubator at 37° C. and 5% CO2. Following a 7 day-incubation, the level of rcDNA present in the inhibitor-treated wells was measured using a Quantigene 2.0 bDNA assay kit (Affymetrix, Santa Clara, Calif.) with HBV specific custom probe set and manufacturers instructions. Concurrently, the effect of compounds on cell viability was assessed using replicate plates, plated at a density of 5,000 cells/well and incubated for 4 days, to determine the ATP content as a measure of cell viability using the cell-titer glo reagent (CTG; Promega Corporation, Madison, Wis.) as per manufacturer's instructions. The plates were read using a Victor luminescence plate reader (PerkinElmer Model 1420 Multilabel counter) and the relative luminescence units (RLU) data generated from each well was calculated as % inhibition of the untreated control wells and analyzed using XL-Fit module in Microsoft Excel to determine EC50 and EC90 (bDNA) and CC50 (CTG) values using a 4-parameter curve fitting algorithm.
Representative compounds of the invention were tested for their abilities to inhibit formation of relaxed circular DNA (rcDNA) in a HepDE19 assay, as described elsewhere herein.
Take `Cn1cnc(COC(=O)NC2CCc3c2cn(C)c3C(=O)Nc2ccc(F)c(Cl)c2)n1` (single isomer, unassigned) [Compound 26, (1-Methyl-1H-1,2,4-triazol-3-yl)methyl (1-((3-chloro-4-fluorophenyl)carbamoyl)-2-methyl-2,4,5,6-tetrahydrocyclopenta[c]pyrrol-4-yl)carbamate]: the EC50 (in general, the concentration that produces a half-maximal response) amounted to 0.05 µM.

As for `CCn1cc2c(c1C(=O)Nc1ccc(F)c(Cl)c1)CCC2NC(=O)OCc1ccn(C)n1` (single isomer, unassigned) [Compound 27, (1-Methyl-1H-pyrazol-3-yl)methyl (1-((3-chloro-4-fluorophenyl)carbamoyl)-2-ethyl-2,4,5,6-tetrahydrocyclopenta[c]pyrrol-4-yl)carbamate], the EC50 came out at 1.5 µM.

For the molecule `CCn1cc2c(c1C(=O)Nc1ccc(F)c(Cl)c1)CCC2NC(=O)OCc1ccn(C)n1` (single isomer, unassigned) [Compound 28, (1-Methyl-1H-pyrazol-3-yl)methyl (1-((3-chloro-4-fluorophenyl)carbamoyl)-2-ethyl-2,4,5,6-tetrahydrocyclopenta[c]pyrrol-4-yl)carbamate], the EC50 came to 0.23 µM.

As to `Cn1cc2c(c1C(=O)Nc1ccc(F)c(Cl)c1)CCCC2NS(=O)(=O)C1CC1` (single isomer, unassigned) [Compound 30, N-(3-Chloro-4-fluorophenyl)-4-(cyclopropanesulfonamido)-2-methyl-4,5,6,7-tetrahydro-2H-isoindole-1-carboxamide], the EC50 turned out to be 2.1 µM.

Take `Cn1cc2c(c1C(=O)Nc1ccc(F)c(Cl)c1)CCC2NC(=O)OCc1ncco1` (single isomer, unassigned) [Compound 34, Oxazol-2-ylmethyl (1-((3-chloro-4-fluorophenyl)carbamoyl)-2-methyl-2,4,5,6-tetrahydrocyclopenta[c]pyrrol-4-yl)carbamate]: the EC50 was determined as 0.08 µM.

For `Cn1cc2c(c1C(=O)Nc1ccc(F)c(Cl)c1)CCC2NC(=O)OCc1ncco1` (single isomer, unassigned) [Compound 35, Oxazol-2-ylmethyl (1-((3-chloro-4-fluorophenyl)carbamoyl)-2-methyl-2,4,5,6-tetrahydrocyclopenta[c]pyrrol-4-yl)carbamate], the EC50 came to 1.8 µM.

`Cn1cc2c(c1C(=O)Nc1ccc(F)c(Cl)c1)CCC2NC(=O)OCc1cnco1` (single isomer, unassigned) [Compound 36, Oxazol-5-ylmethyl (1-((3-chloro-4-fluorophenyl)carbamoyl)-2-methyl-2,4,5,6-tetrahydrocyclopenta[c]pyrrol-4-yl)carbamate]: the EC50 worked out at 0.02 µM.

As for `Cn1cc2c(c1C(=O)Nc1ccc(F)c(Cl)c1)CCC2NC(=O)OCc1cnco1` (single isomer, unassigned) [Compound 37, Oxazol-5-ylmethyl (1-((3-chloro-4-fluorophenyl)carbamoyl)-2-methyl-2,4,5,6-tetrahydrocyclopenta[c]pyrrol-4-yl)carbamate], the EC50 worked out at 2.6 µM.

As for `Cn1cnc(COC(=O)NC2CCn3c(C(=O)Nc4ccc(F)c(Cl)c4)ccc32)n1` (single isomer, unassigned) [Compound 40, (1-Methyl-1H-1,2,4-triazol-3-yl)methyl (5-((3-chloro-4-fluorophenyl)carbamoyl)-2,3-dihydro-1H-pyrrolizin-1-yl)carbamate], the EC50 worked out at 6.6 µM.

For the molecule `Cn1cnc(COC(=O)NC2CCn3c(C(=O)Nc4ccc(F)c(Cl)c4)ccc32)n1` (single isomer, unassigned) [Compound 41, (1-Methyl-1H-1,2,4-triazol-3-yl)methyl (5-((3-chloro-4-fluorophenyl)carbamoyl)-2,3-dihydro-1H-pyrrolizin-1-yl)carbamate], the concentration for a half-maximal effect (EC50) is no less than 25 µM.

On to `Cn1cnc(COC(=O)NC2CCc3c2c(Br)n(C)c3C(=O)Nc2ccc(F)c(Cl)c2)n1` (single isomer, unassigned) [Compound 47, (1-Methyl-1H-1,2,4-triazol-3-yl)methyl (3-bromo-1-((3-chloro-4-fluorophenyl)carbamoyl)-2-methyl-2,4,5,6-tetrahydrocyclopenta[c]pyrrol-4-yl)carbamate], for which the EC50 was determined as 3.1 µM.

On to `Cn1cnc(COC(=O)NC2CCc3c2c(Br)n(C)c3C(=O)Nc2ccc(F)c(Cl)c2)n1` (single isomer, unassigned) [Compound 48, (1-Methyl-1H-1,2,4-triazol-3-yl)methyl (3-bromo-1-((3-chloro-4-fluorophenyl)carbamoyl)-2-methyl-2,4,5,6-tetrahydrocyclopenta[c]pyrrol-4-yl)carbamate], for which the concentration for a half-maximal effect (EC50) turned out to be 0.01 µM.

In the case of `Cn1cc2c(c1C(=O)Nc1ccc(F)c(Cl)c1)CCC2NC(=O)OCCC#N` (single isomer, unassigned) [Compound 49, 2-Cyanoethyl (1-((3-chloro-4-fluorophenyl)carbamoyl)-2-methyl-2,4,5,6-tetrahydrocyclopenta[c]pyrrol-4-yl)carbamate], the EC50 is 0.06 µM.

With `Cn1cc2c(c1C(=O)Nc1ccc(F)c(Cl)c1)CCC2NC(=O)OCCC#N` (single isomer, unassigned) [Compound 50, 2-Cyanoethyl (1-((3-chloro-4-fluorophenyl)carbamoyl)-2-methyl-2,4,5,6-tetrahydrocyclopenta[c]pyrrol-4-yl)carbamate], the EC50 worked out at 3 µM.

In the case of `Cn1cnc(COC(=O)NC2CCc3c2c(Cl)n(C)c3C(=O)Nc2ccc(F)c(Cl)c2)n1` (single isomer, unassigned) [Compound 51, (1-Methyl-1H-1,2,4-triazol-3-yl)methyl (3-chloro-1-((3-chloro-4-fluorophenyl)carbamoyl)-2-methyl-2,4,5,6-tetrahydrocyclopenta[c]pyrrol-4-yl)carbamate], the EC50 stood at 0.01 µM.

`Cn1cnc(COC(=O)NC2CCc3c2c(Cl)n(C)c3C(=O)Nc2ccc(F)c(Cl)c2)n1` (single isomer, unassigned) [Compound 52, (1-Methyl-1H-1,2,4-triazol-3-yl)methyl (3-chloro-1-((3-chloro-4-fluorophenyl)carbamoyl)-2-methyl-2,4,5,6-tetrahydrocyclopenta[c]pyrrol-4-yl)carbamate]: the EC50 stood at 0.31 µM.

Regarding `Cn1cc2c(c1C(=O)Nc1ccc(F)c(Cl)c1)CCC2NC(=O)OCC1(C(N)=O)CC(F)(F)C1` (single isomer, unassigned) [Compound 55, (1-Carbamoyl-3,3-difluorocyclobutyl)methyl(1-((3-chloro-4-fluorophenyl)carbamoyl)-2-methyl-2,4,5,6-tetrahydrocyclopenta[c]pyrrol-4-yl)carbamate], the EC50 was determined as 4.4 µM.

The test is the same for the next values; noted with them: Hepatitis B virus, HepDE19, 168 h, HepDE19 cells, Tet-free medium, 7 day-incubation, rcDNA measured by Quantigene 2.0 bDNA assay, top concentration 25 μM; read-out: DE-19 bDNA EC50.
Consider `Cn1ccc(COC(=O)NC2CCCc3c2cn(C)c3C(=O)Nc2ccc(F)c(Cl)c2)n1` (single isomer, unassigned) [Compound 31, (1-Methyl-1H-pyrazol-3-yl)methyl (1-((3-chloro-4-fluorophenyl)carbamoyl)-2-methyl-4,5,6,7-tetrahydro-2H-isoindol-4-yl)carbamate], for which the EC50 amounted to 0.5 µM.

As to `Cn1cnc(COC(=O)NC2CCCc3c2cn(C)c3C(=O)Nc2ccc(F)c(Cl)c2)n1` (single isomer, unassigned) [Compound 33, (1-Methyl-1H-1,2,4-triazol-3-yl)methyl (1-((3-chloro-4-fluorophenyl)carbamoyl)-2-methyl-4,5,6,7-tetrahydro-2H-isoindol-4-yl)carbamate], the EC50 turned out to be 0.03 µM.

Staying with this test, now noted: read-out: DE-19 bDNA EC50; HepDE19 cells, Tet-free medium, 7 day-incubation, rcDNA measured by Quantigene 2.0 bDNA assay, top concentration 25 μM.
As to `COC(=O)NC1CCCc2c1cn(C)c2C(=O)Nc1ccc(F)c(Cl)c1` (single isomer, unassigned) [Compound 29, Methyl (1-((3-chloro-4-fluorophenyl)carbamoyl)-2-methyl-4,5,6,7-tetrahydro-2H-isoindol-4-yl)carbamate], the EC50 is 0.47 µM.

As for `COC(=O)NC1CCn2c(C(=O)Nc3ccc(F)c(Cl)c3)ccc21` (single isomer, unassigned) [Compound 38, Methyl (5-((3-chloro-4-fluorophenyl)carbamoyl)-2,3-dihydro-1H-pyrrolizin-1-yl)carbamate], the EC50 came to 4.7 µM.

Regarding `COC(=O)NC1CCn2c(C(=O)Nc3ccc(F)c(Cl)c3)ccc21` (single isomer, unassigned) [Compound 39, Methyl (5-((3-chloro-4-fluorophenyl)carbamoyl)-2,3-dihydro-1H-pyrrolizin-1-yl)carbamate], the EC50 is 15 µM.
